Columns and labels:
Assay type in all cases: cell-based
Gamma Delta T cells [1] = test: Proliferation rate of Gamma Delta T cells on ex vivo stimulation of MNC; conditions: changed stimulant vs standard protocol; zoledronate pulse 100 μM 4 h (day 7); IL-15 10 ng/ml, IL-2 1000 U/ml
Description: Cell cultures were performed with peripheral blood obtained from healthy adult donors. Peripheral blood mononuclear cells (MNC) were isolated by density gradient centrifugation with Biocoll (Biochrom, Darmstand, Germany/Bio&SELL, Feucht, Germany). MNC were incubated up to 17 days at 37° C. and 5% CO2.
For cultivation, MNC at a concentration of 5.0E+05/ml were cultured in 50 ml cell culture flasks (Sarstedt, Nuembrecht, Germany) using medium consisting of OpTmizer™ CTSTM T-Cell Expansion Basal Medium, OpTmizer™ CTSTM T-Cell Expansion Supplement (Gibco/Thermo Fisher, Waltham, USA) and 1% 200 mM L-Glutamin. 10 μM Zoledronate were added on day 0 and 1000 U/ml IL-2 were added on day 2. On days 4, 7, 9, 11 and 14 half of the medium was removed and replaced by fresh medium containing 2× 1000 U/ml IL-2 for a final concentration of 1000 U/ml. Cells were not split at any time. From day 4 on cell culture flasks were shaken at 250 rpm. For pulsing zoledronate, 100 μM Zol were added on day 0. […]
Cell counts and cell viability were established using a hemocytometer and the trypan blue exclusion method. Cell count and proliferation rate of Gamma Delta T cells was calculated on the basis of the cell number of the MNC and the percentage of Gamma Delta T cells on the MNC determined by flow cytometry. […]

[2] = tested on: cytoplasmic perforin of Gamma Delta T cells; test: Cytoplasmic perforin staining, flow cytometry
Description: To evaluate the activity of stimulated Gamma Delta T cells, cytoplasmic perforin and IFN γ were stained every three to four days and Δ MFI was measured by flow cytometry.

tumor cell line Daudi = test: Cytotoxicity assay
Source text: To directly determine the anti-tumor activity of Gamma Delta T cells against the tumor cell line Daudi, the present inventors performed a cytotoxicity assay on day 10 of cultivation comparing the prior art (R10F) and preferred embodiment of the present invention (Ko-Op). For this, Alpha Beta T cells and NKp46+ cells were paramagnetically depleted from the cell suspension in order to isolate the Gamma Delta T cells on day 10. The cell composition before and after depletion is shown FIG. 2A.
The present inventors next performed the cytotoxicity assay with the different cultivated MNC. To be able to compare the methods more clearly, the present inventors calculated the lytic units per 10^6 effector cells.

Gamma Delta T cells [3] = test: Differentiation of Gamma Delta T cells by CD45RA and CD27 expression
Source text: The present inventors divided the T cells into naive, central memory, effector memory and terminally differentiated Gamma Delta T cells based on expression of CD45RA and CD27.

[4] = changed stimulant vs standard protocol, without combination of modifications
[5] = changed stimulant vs standard protocol
[6] = IL-15 instead of IL-2, combined with pulsing zoledronate

Compound | proliferation rate of Gamma Delta T cells (Gamma Delta T cells [1]) | cytoplasmic perforin [2, 4] | lytic units per 10^6 effector cells (tumor cell line Daudi; without therapeutic antibodies, vs standard protocol) | percentage of central memory Gamma Delta T cells (TCM) (Gamma Delta T cells [3]; [5]) | cytoplasmic perforin ([2]; IL-15 instead of IL-2, with zoledronate pulse) | lytic units per 10^6 effector cells (tumor cell line Daudi; with zoledronate pulse, without antibody, vs zoledronate pulse without modification of the interleukins) | percentage of effector Gamma Delta T cells (TEM) (Gamma Delta T cells [3]; IL-15 instead of IL-2) | percentage of central memory Gamma Delta T cells (TCM) (Gamma Delta T cells [3]; [6]) | percentage of effector Gamma Delta T cells (TEM) (Gamma Delta T cells [3]; [6])
O=P(O)(O)C(O)(Cn1ccnc1)P(=O)(O)O [zoledronate, reference compound] | significant lower proliferation rate | did not lead to any significant change | significant increase | more TCM |  |  |  |  | 
IL-15: interleukin used at 10 ng/ml in place of IL-2 | significantly lower | significant reduction |  | elevated percentage | significant reduction | an increase | reduced percentage | elevated percentage | reduced percentage
